In PubChem BioAssay AID1963825 (Molecular Pharmacology Branch, DTP, NCI, 2024):

Test: Anticancer human tumor 997537-175-T-J1-PDC patient-derived colon adenocarcinoma cell line growth inhibition [POLQ]
Settings: 997537-175-T-J1-PDC complex spheroid viability, combination with POLQ inhibitors; for IC50: curve of first compound; for viability, T/C: stronger effect = lower value
Method in brief: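 Complex spheroid viability model combining PDC tumour cells with endothelial (HUVEC) and MSC stromal cells. Novobiocin, ART-558 or RP6685 were tested singly and in combination with standard and investigational anticancer drugs. Each was titrated in half-log steps from near clinical Cmax, or from 10 microM where Cmax was unknown.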

[1] = second compound 0.0316 µM, first compound 0.0316 µM
[2] = second compound 0.0316 µM, first compound 0.1 µM
[3] = second compound 0.0316 µM, first compound 0.316 µM
[4] = second compound 0.0316 µM, first compound 1 µM
[5] = second compound 0.1 µM, first compound 0.0316 µM
[6] = second compound 0.1 µM, first compound 0.1 µM
[7] = second compound 0.1 µM, first compound 0.316 µM
[8] = second compound 0.1 µM, first compound 1 µM
[9] = second compound 0.316 µM, first compound 0.0316 µM
[10] = second compound 0.316 µM, first compound 0.1 µM
[11] = second compound 0.316 µM, first compound 0.316 µM
[12] = second compound 0.316 µM, first compound 1 µM
[13] = second compound 1 µM, first compound 0.0316 µM
[14] = second compound 1 µM, first compound 0.1 µM
[15] = second compound 1 µM, first compound 0.316 µM
[16] = second compound 1 µM, first compound 1 µM
[17] = second compound 3.16 µM, first compound 0.0316 µM
[18] = second compound 3.16 µM, first compound 0.1 µM
[19] = second compound 3.16 µM, first compound 0.316 µM
[20] = second compound 3.16 µM, first compound 1 µM
[21] = second compound 10 µM, first compound 0.0316 µM
[22] = second compound 10 µM, first compound 0.1 µM
[23] = second compound 10 µM, first compound 0.316 µM
[24] = second compound 10 µM, first compound 1 µM
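Note: luminescence signal used as a surrogate for viable cells; spheroids exposed to drugs for seven days before readout.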

For `C=CCn1c(=O)c2cnc(Nc3ccc(N4CCN(C)CC4)cc3)nc2n1-c1cccc(C(C)(C)O)n1` + Cc1cccc(N(C)C(=O)C2C(O)CCN2c2nc(C)cc(C(F)(F)F)c2C#N)c1, the IC50 (second compound 0.0316 µM) was over 1 µM, the IC50 (second compound 0.1 µM) was over 1 µM and the IC50 (second compound 0.316 µM) was over 1 µM. The IC50 (second compound 1 µM) was over 1 µM, the IC50 (second compound 3.16 µM) was over 1 µM and the IC50 (second compound 10 µM) was over 1 µM. It also gave a viability, T/C (second compound 0.0316 µM, first compound 0.00316 µM) of 101%, a viability, T/C (second compound 0.0316 µM, first compound 0.01 µM) of 100% and a viability, T/C [1] of 93.9%. For the same compound, the viability, T/C [2] was 90.9%, the viability, T/C [3] was 100% and the viability, T/C [4] was 76.2%. It also gave a viability, T/C (second compound 0.1 µM, first compound 0.00316 µM) of 99.4%, a viability, T/C (second compound 0.1 µM, first compound 0.01 µM) of 109% and a viability, T/C [5] of 95%. It also gave a viability, T/C [6] of 88.8%, a viability, T/C [7] of 81.2% and a viability, T/C [8] of 64.2%. The viability, T/C (second compound 0.316 µM, first compound 0.00316 µM) was 89.4%, the viability, T/C (second compound 0.316 µM, first compound 0.01 µM) was 113% and the viability, T/C [9] was 110%. The viability, T/C [10] was 91.9%, the viability, T/C [11] was 83.2% and the viability, T/C [12] was 75%. It also gave a viability, T/C (second compound 1 µM, first compound 0.00316 µM) of 118%, a viability, T/C (second compound 1 µM, first compound 0.01 µM) of 109% and a viability, T/C [13] of 106%. The viability, T/C [14] was 99.8%, the viability, T/C [15] was 113% and the viability, T/C [16] was 84.9%. The viability, T/C (second compound 3.16 µM, first compound 0.00316 µM) was 93.2%, the viability, T/C (second compound 3.16 µM, first compound 0.01 µM) was 95.6% and the viability, T/C [17] was 101%. It also gave a viability, T/C [18] of 96.1%, a viability, T/C [19] of 85.4% and a viability, T/C [20] of 59.6%. For the same compound, the viability, T/C (second compound 10 µM, first compound 0.00316 µM) was 111%, the viability, T/C (second compound 10 µM, first compound 0.01 µM) was 99.5% and the viability, T/C [21] was 95.3%. It also gave a viability, T/C [22] of 93.6%, a viability, T/C [23] of 78.9% and a viability, T/C [24] of 94.8%.

Compound `O=C(c1cc(Cc2n[nH]c(=O)c3ccccc23)ccc1F)N1CCN(C(=O)C2CC2)CC1` + Cc1cccc(N(C)C(=O)C2C(O)CCN2c2nc(C)cc(C(F)(F)F)c2C#N)c1 has an IC50 (second compound 0.0316 µM) of over 10 µM, an IC50 (second compound 0.1 µM) of over 10 µM and an IC50 (second compound 0.316 µM) of over 10 µM. It also gave an IC50 (second compound 1 µM) of over 10 µM, an IC50 (second compound 3.16 µM) of over 10 µM and an IC50 (second compound 10 µM) of over 10 µM. The viability, T/C [1] was 107%, the viability, T/C [2] was 97.5% and the viability, T/C [3] was 94.8%. It also gave a viability, T/C [4] of 92.3%, a viability, T/C (second compound 0.0316 µM, first compound 3.16 µM) of 102% and a viability, T/C (second compound 0.0316 µM, first compound 10 µM) of 103%. The viability, T/C [5] was 91.9%, the viability, T/C [6] was 108% and the viability, T/C [7] was 102%. For the same compound, the viability, T/C [8] was 105%, the viability, T/C (second compound 0.1 µM, first compound 3.16 µM) was 101% and the viability, T/C (second compound 0.1 µM, first compound 10 µM) was 86.2%. The viability, T/C [9] was 107%, the viability, T/C [10] was 105% and the viability, T/C [11] was 109%. The viability, T/C [12] was 99%, the viability, T/C (second compound 0.316 µM, first compound 3.16 µM) was 118% and the viability, T/C (second compound 0.316 µM, first compound 10 µM) was 110%. It also gave a viability, T/C [13] of 99.1%, a viability, T/C [14] of 102% and a viability, T/C [15] of 109%. It also gave a viability, T/C [16] of 97.1%, a viability, T/C (second compound 1 µM, first compound 3.16 µM) of 100% and a viability, T/C (second compound 1 µM, first compound 10 µM) of 87.5%. The viability, T/C [17] was 101%, the viability, T/C [18] was 108% and the viability, T/C [19] was 92.2%. It also gave a viability, T/C [20] of 92.1%, a viability, T/C (second compound 3.16 µM, first compound 3.16 µM) of 97.5% and a viability, T/C (second compound 3.16 µM, first compound 10 µM) of 103%. For the same compound, the viability, T/C [21] was 99.3%, the viability, T/C [22] was 87.3% and the viability, T/C [23] was 91.1%. For the same compound, the viability, T/C [24] was 97%, the viability, T/C (second compound 10 µM, first compound 3.16 µM) was 87.1% and the viability, T/C (second compound 10 µM, first compound 10 µM) was 96.4%.
